Drawing on patent US20070191393A1, “Macrocyclic anilinopyrimidines with substituted sulphoximine as selective inhibitors of cell cycle kinases” (priority 2006, published 2007), this text covers IC50 for nine molecules.

A word on the IC50: it is the concentration needed to halve the response being measured. Higher therefore signals a need for much substance.

What all share (format): biochemical
The target in one assay is T1, CDK1/CycB (Homo sapiens, UniProt P06493).
T1 construct: GST; purchased ProQinase GmbH, Freiburg; host or cells: baculovirus-infected Sf9 insect cells
Nature of the assay: CDK1/CycB kinase assay. The note with it: 0.5 μM ATP, 22° C., 10 min. On the procedure:
Recombinant CDK1- and CycB-GST fusion proteins, purified from baculovirus-infected insect cells (Sf9), were purchased from ProQinase GmbH, Freiburg. The histone IIIS used as kinase substrate can be purchased from Sigma. CDK1/CycB (200 ng/measurement point) was incubated in the presence of various concentrations of test substances (0 μM, and within the range 0.01-100 μM) in assay buffer [50 mM Tris/HCl pH 8.0, 10 mM MgCl2, 0.1 mM Na ortho-vanadate, 1.0 mM dithiothreitol, 0.5 μM ATP, 10 μg/measurement point histone IIIS, 0.2 μCi/measurement point 33P-gamma ATP, 0.05% NP40, 1.25% dimethyl sulphoxide] at 22° C. for 10 min. The reaction was stopped by adding EDTA solution (250 mM, pH 8.0, 15 μl/measurement point).
15 μl of each reaction mixture were loaded onto P30 filter strips (from Wallac), and non-incorporated 33P-ATP was removed by washing the filter strips three times in 0.5% strength phosphoric acid for 10 min each time. After the filter strips had been dried at 70° C. for 1 hour, the filter strips were covered with scintillator strips (MeltiLex™ A, from Wallac) and baked at 90° C. for 1 hour. The amount of incorporated 33P (substrate phosphorylation) was determined by scintillation measurement in a gamma radiation counter (Wallac).

The target of the next assay is T2, Aurora-C (Homo sapiens, UniProt Q9UQB9).
T2 construct: made in house; host or cells: HEK293 (transiently transfected)
T2 sequence (Q9UQB9 1-309): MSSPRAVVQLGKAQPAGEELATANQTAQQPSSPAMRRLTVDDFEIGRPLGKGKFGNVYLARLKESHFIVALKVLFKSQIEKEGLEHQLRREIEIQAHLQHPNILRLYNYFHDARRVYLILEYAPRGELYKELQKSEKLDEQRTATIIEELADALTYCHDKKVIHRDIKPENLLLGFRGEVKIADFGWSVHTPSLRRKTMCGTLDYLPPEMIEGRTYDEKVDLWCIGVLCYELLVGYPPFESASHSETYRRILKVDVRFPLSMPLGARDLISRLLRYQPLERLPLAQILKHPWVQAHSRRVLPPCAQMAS
Nature of the assay: Aurora-C kinase assay. The following applies: 3 μM ATP, 22° C., 90 min. Here is the method: Recombinant Aurora-C protein was expressed in transiently transfected HEK293 cells and then purified. The kinase substrate used was the biotinylated peptide having the amino acid sequence biotin-FMRLRRLSTKYRT, which was purchased from Jerini A G in Berlin.
Aurora-C [5 nM in the test mixture, test volume 5 μl] was incubated in the presence of various concentrations of test substances (0 μM and 10 measurement points within the range 0.001-20 μM in duplicate) in assay buffer [25 mM HEPES pH 7.4, 0.5 mM MnCl2, 0.1 mM Na ortho-vanadate, 2.0 mM dithiothreitol, 0.05% bovine serum albumin (BSA), 0.01% Triton X-100, 3 μM adenosine trisphosphate (ATP), 0.67 nCi/μl gama-P33-ATP, 2.0 μM substrate peptide biotin-FMRLRRLSTKYRT, 1.0% dimethyl sulphoxide] at 22° C. for 90 min. The reaction was stopped by adding 12.5 μl of an EDTA/detection solution [16 mM EDTA, 40 mM ATP, 0.08% Triton X-100, 4 mg/ml PVT streptavidin SPA beads (from Amersham)]. After incubation for 10 minutes, the SPA beads were pelleted by centrifugation at 1000×G for 10 minutes. Measurement took place in a PerkinElmer Topcount scintillation counter. The measured data were normalized to 0% inhibition (enzyme reaction without inhibitor) and 100% inhibition (enzyme reaction in the presence of 0.1 μM staurosporine (from Sigma)). The IC50 values were determined by means of a 4-parameter fit using the company's own software.

For the next assay, the target named is T3, c-kit (Homo sapiens, UniProt P10721).
T3 construct: made in house; host or cells: E. coli
Nature of the assay: c-Kit kinase assay. The note with it: 10 μM ATP, 22° C., 30 min. Here is the method: Recombinant c-kit protein was expressed in E. coli and then purified. The kinase substrate used was the biotinylated peptide having the amino acid sequence biotin-poly GluTyr, which was purchased from CisBio.
C-kit [test volume 5 μl] was incubated in the presence of various concentrations of test substances (0 μM, and 10 measurement points within the range 0.001-20 μM in duplicate) in assay buffer [50 mM HEPES pH 7.0, 1.0 mM MgCl2, […], 0.1 mM Na ortho-vanadate, 1.0 mM dithiothreitol, 0.001% NP40, 10 μM ATP, 0.03 μM substrate peptide biotin-poly GluTyr, 1.0% dimethyl sulphoxide] at 22° C. for 30 min. The reaction was stopped by adding 5 μl of an EDTA/detection solution [50 mM HEPES pH 7.5, 80 mM EDTA, 0.2% BSA, 0.1 μM streptavidin-XLent (from CisBio), 1 nM PT66-Eu (from PerkinElmer)]. The fluorescence emission at 620 nm and 665 nm after excitation with light of the wavelength 350 nm was measured in a Rubystar HTRF instrument from BMG Labsystems. The measured data (ratio of emission 665 divided by emission 620 multiplied by 10 000) were normalized to 0% inhibition (enzyme reaction without inhibitor) and 100% inhibition (all assay components apart from enzyme). The IC50 values were determined by means of a 4-parameter fit using the company's own software.

Molecules are shown by their SMILES.

T1 sequence (P06493 whole entry): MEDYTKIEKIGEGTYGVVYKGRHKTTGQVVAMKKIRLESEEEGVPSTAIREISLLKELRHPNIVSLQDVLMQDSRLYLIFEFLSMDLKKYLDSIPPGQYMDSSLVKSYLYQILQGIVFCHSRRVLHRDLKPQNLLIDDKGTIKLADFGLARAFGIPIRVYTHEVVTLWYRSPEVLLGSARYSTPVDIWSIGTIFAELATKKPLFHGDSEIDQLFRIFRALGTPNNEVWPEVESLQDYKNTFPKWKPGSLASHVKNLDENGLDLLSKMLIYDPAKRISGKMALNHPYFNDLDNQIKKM
T1 sequence (P14635 whole entry partner): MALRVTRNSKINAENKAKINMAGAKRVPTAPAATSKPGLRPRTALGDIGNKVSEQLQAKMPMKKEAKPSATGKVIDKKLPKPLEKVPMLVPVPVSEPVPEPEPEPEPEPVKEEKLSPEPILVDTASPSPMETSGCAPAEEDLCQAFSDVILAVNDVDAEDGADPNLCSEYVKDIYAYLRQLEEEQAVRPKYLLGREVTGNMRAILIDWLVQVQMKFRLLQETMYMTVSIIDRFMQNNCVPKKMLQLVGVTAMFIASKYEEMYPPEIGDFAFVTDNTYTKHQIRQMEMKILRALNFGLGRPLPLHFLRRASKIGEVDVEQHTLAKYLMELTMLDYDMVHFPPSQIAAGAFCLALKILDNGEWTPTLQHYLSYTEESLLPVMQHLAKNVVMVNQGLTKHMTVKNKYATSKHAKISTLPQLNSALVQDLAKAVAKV
T3 sequence (P10721 26-976): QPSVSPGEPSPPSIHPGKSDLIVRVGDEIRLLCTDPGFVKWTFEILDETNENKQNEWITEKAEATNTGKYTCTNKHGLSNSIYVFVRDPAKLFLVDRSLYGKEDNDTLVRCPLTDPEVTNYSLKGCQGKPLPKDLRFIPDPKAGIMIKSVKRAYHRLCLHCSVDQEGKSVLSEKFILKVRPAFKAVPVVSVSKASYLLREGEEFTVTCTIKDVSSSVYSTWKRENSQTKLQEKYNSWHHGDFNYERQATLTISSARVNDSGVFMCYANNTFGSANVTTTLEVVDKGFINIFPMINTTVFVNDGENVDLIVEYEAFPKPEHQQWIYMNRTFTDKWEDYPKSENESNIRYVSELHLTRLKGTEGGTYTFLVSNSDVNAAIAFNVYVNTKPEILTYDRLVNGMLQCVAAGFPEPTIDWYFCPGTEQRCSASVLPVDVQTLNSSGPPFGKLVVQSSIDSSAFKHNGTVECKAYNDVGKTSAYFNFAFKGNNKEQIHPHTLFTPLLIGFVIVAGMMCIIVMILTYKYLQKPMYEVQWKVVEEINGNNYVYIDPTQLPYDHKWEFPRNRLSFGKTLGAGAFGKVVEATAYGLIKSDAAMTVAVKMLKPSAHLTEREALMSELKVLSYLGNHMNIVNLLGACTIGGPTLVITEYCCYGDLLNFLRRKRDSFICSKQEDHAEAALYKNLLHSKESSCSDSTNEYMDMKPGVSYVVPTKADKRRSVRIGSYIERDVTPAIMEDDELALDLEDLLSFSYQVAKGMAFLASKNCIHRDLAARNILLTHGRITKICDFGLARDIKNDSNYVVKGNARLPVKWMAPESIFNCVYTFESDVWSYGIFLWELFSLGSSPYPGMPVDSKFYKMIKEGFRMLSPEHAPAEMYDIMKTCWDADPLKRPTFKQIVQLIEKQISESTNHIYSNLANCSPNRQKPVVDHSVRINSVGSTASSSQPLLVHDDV

With `CCOC(=O)N=S(C)(=O)c1ccc2cc1NCCCCNc1nc(ncc1Br)N2` (single isomer, unassigned) [Example 3], the IC50 at CDK1/CycB came out at 210 nM; on Aurora-C, 69 nM; on c-kit it was 64 nM.

Take `CCCOC(=O)N=S(C)(=O)c1ccc2cc1OCCCCNc1nc(ncc1Br)N2` (racemic) [Example 8, (RS)—S-[1^5-Bromo-4-oxa-2,9-diaza-1(2,4)-pyrimidina-3(1,3)-benzenacyclononaphan-3^4-yl]-S-methyl-N-(propoxycarbonyl)sulphoximide]: the IC50 at CDK1/CycB was determined as 438 nM; against Aurora-C, 283 nM; at c-kit, 357 nM.

With `CCNC(=O)N=S(C)(=O)c1ccc2cc1NCCCCNc1nc(ncc1Br)N2` (racemic) [Example 6, (RS)—S-[1^5-Bromo-2,4,9-triaza-1(2,4)-pyrimidina-3(1,3)-benzenacyclononaphan-3^4-yl]-N-(ethylcarbamoyl)-S-methylsulphoximide], the IC50 on CDK1/CycB worked out at 70 nM; against Aurora-C, 19 nM; at c-kit it was 14 nM.

As to `CCOC(=O)N=S(C)(=O)c1ccc2cc1NCCCCNc1nc(ncc1Br)N2` (single isomer, unassigned) [Example 2], the concentration for half-maximal inhibition (IC50) against CDK1/CycB worked out at 104 nM; against Aurora-C it was 13 nM; against c-kit it was 46 nM.

As to `C[Si](C)(C)CCS(=O)(=O)N=S(C)(=O)c1ccc2cc1NCCCCNc1nc(ncc1Br)N2` (racemic) [Example 5, (RS)—S-[1^5-Bromo-2,4,9-triaza-1(2,4)-pyrimidina-3(1,3)-benzenacyclononaphan-3^4-yl]-S-methyl-N-[2-(trimethylsilyl)ethylsulphonyl]sulphoximide], the values for the 50% inhibitory concentration (IC50) on CDK1/CycB, against Aurora-C and against c-kit were > 1000 nM, 88 nM and 164 nM, respectively.

In the case of `CCOC(=O)N=S(C)(=O)c1ccc2cc1NCCCCNc1nc(ncc1Br)N2` (racemic) [Example 1, (RS)—S-[1^5-Bromo-2,4,9-triaza-1(2,4)-pyrimidina-3(1,3)-benzenacyclononaphan-3^4-yl]-N-(ethoxycarbonyl)-S-methylsulphoximide], the IC50 against CDK1/CycB stood at 173 nM; against Aurora-C, 19 nM; on c-kit, 29 nM.

`C[Si](C)(C)CCS(=O)(=O)N=S(C)(=O)c1ccc2cc1OCCCCNc1nc(ncc1Br)N2` (racemic) [Example 9, (RS)—S-[1^5-Bromo-4-oxa-2,9-diaza-1(2,4)-pyrimidina-3(1,3)-benzenacyclononaphan-3^4-yl]-S-methyl-N-[2-(trimethylsilyl)ethylsulphonyl]sulphoximide]: the IC50 at CDK1/CycB was > 1000 nM; against Aurora-C, 95 nM; at c-kit, > 12500 nM.

Regarding `CCCS(=O)(=O)N=S(C)(=O)c1ccc2cc1NCCCCNc1nc(ncc1Br)N2` (racemic) [Example 7, (RS)—S-[1^5-Bromo-2,4,9-triaza-1(2,4)-pyrimidina-3(1,3)-benzenacyclononaphan-3^4-yl]-S-methyl-N-(propylsulphonyl)sulphoximide], the IC50 came to 452 nM at CDK1/CycB, 34 nM against Aurora-C and 17 nM on c-kit.

Consider `CCOC(=O)N=S(C)(=O)c1ccc2cc1NCCCCNc1nc(ncc1I)N2` (racemic) [Example 4, (RS)—N-(Ethoxycarbonyl)-S-[1^5-iodo-2,4,9-triaza-1(2,4)-pyrimidina-3(1,3)-benzenacyclononaphan-3^4-yl]-S-methylsulphoximide], for which the values for the IC50 against CDK1/CycB, against Aurora-C and against c-kit were 118 nM, 24 nM and 23 nM, respectively.
